Measurements reported in ChEMBL document CHEMBL1153608, “Synthesis, antimalarial evaluation and molecular modeling studies of hydroxyethylpiperazines, potential aspartyl protease inhibitors, part 2” (Eur J Med Chem, 2009).

What was measured:
[1] = Cytotoxicity against mouse J774 cells assessed as cell viability at 1 ug/mL after 24 hrs by MTT assay; type: cell-based; details: read-out: Activity
Plasmodium falciparum [2] = assay: Antimalarial activity against Plasmodium falciparum W2 by [3H]hypoxanthine uptake; type: functional, organism-based
[3] = Cytotoxicity against mouse J774 cells assessed as cell viability at 100 ug/mL after 24 hrs by MTT assay; type: cell-based; details: read-out: Activity
[4] = Cytotoxicity against mouse J774 cells assessed as cell viability at 10 ug/mL after 24 hrs by MTT assay; type: cell-based; details: read-out: Activity
[5] = Cytotoxicity against mouse J774 cells assessed as cell viability at 0.1 ug/mL after 24 hrs by MTT assay; type: cell-based; details: read-out: Activity
Plasmodium falciparum [6] = assay: Antimalarial activity against chloroquine-sensitive Plasmodium falciparum 3D7 by [3H]hypoxanthine uptake; type: functional, organism-based

IC50 (Plasmodium falciparum [2]) [µM]	Compound	viability at 24 h, 1 ug/mL [1] [%]	viability at 24 h, 100 ug/mL [3] [%]	viability at 24 h, 10 ug/mL [4] [%]	viability at 24 h, 0.1 ug/mL [5] [%]	IC50 (Plasmodium falciparum [6]) [µM]
25.4	O=C(N[C@@H](Cc1ccccc1)[C@H](O)CN1CCN(Cc2ccc3c(c2)OCO3)CC1)c1ccc2c(c1)OCO2	100	61	95	100	
5.9	Cc1c(O)cccc1C(=O)N[C@@H](Cc1ccccc1)[C@H](O)CN1CCN(Cc2ccc3c(c2)OCO3)CC1	75	8	8	100	
55.5	O=C(N[C@@H](Cc1ccccc1)[C@H](O)CN1CCN(Cc2ccc3c(c2)OCO3)CC1)c1c(Cl)cccc1Cl	90	43	84	100	
69.4	O=C(N[C@@H](Cc1ccccc1)[C@H](O)CN1CCN(Cc2ccc3c(c2)OCO3)CC1)c1ccccc1	100	38	91	100	
47.2	O=C(N[C@@H](Cc1ccccc1)[C@H](O)CN1CCN(Cc2ccc3c(c2)OCO3)CC1)c1cc(Cl)cc(Cl)c1	100	93	98	98	
47.4	O=C(N[C@@H](Cc1ccccc1)[C@H](O)CN1CCN(Cc2ccc3c(c2)OCO3)CC1)c1c(F)cccc1F	87	51	83	85	
16.9	Cc1ccc(S(=O)(=O)N[C@@H](Cc2ccccc2)[C@H](O)CN2CCN(Cc3ccc4c(c3)OCO4)CC2)cc1	100	49	98	100	

Second part, the compound before the results:

Compound	IC50 (Plasmodium falciparum [2]) [µM]	viability at 24 h, 1 ug/mL [1] [%]	viability at 24 h, 100 ug/mL [3] [%]	viability at 24 h, 10 ug/mL [4] [%]	viability at 24 h, 0.1 ug/mL [5] [%]	IC50 (Plasmodium falciparum [6]) [µM]
Cc1ccc(S(=O)(=O)N[C@@H](Cc2ccccc2)[C@H](O)CN2CCN(Cc3ccc([N+](=O)[O-])cc3)CC2)cc1	> 90	100	92	93	91	
O=[N+]([O-])c1ccc(S(=O)(=O)N[C@@H](Cc2ccccc2)[C@H](O)CN2CCN(Cc3ccc4c(c3)OCO4)CC2)cc1	44	100	40	100	100	
Nc1ccc(S(=O)(=O)N[C@@H](Cc2ccccc2)[C@H](O)CN2CCN(Cc3ccc4c(c3)OCO4)CC2)cc1	4.8	100	55	99	100	4.6
Cc1ccc(S(=O)(=O)N[C@@H](Cc2ccccc2)[C@H](O)CN2CCN(Cc3ccc(Cl)cc3)CC2)cc1	35.1	98	22	90	100	
Cc1ccc(S(=O)(=O)N[C@@H](Cc2ccccc2)[C@H](O)CN2CCN(Cc3ccc(F)cc3)CC2)cc1	43	100	15	92	100	
Cc1ccc(S(=O)(=O)N[C@@H](Cc2ccccc2)[C@H](O)CN2CCN(Cc3ccccc3)CC2)cc1	> 90	86	5	88	100	
COc1ccc(S(=O)(=O)N[C@@H](Cc2ccccc2)[C@H](O)CN2CCN(Cc3ccc4c(c3)OCO4)CC2)cc1	34.3	99	12	90	100	
O=S(=O)(N[C@@H](Cc1ccccc1)[C@H](O)CN1CCN(Cc2ccc3c(c2)OCO3)CC1)c1ccc(Br)cc1	5.6	100	5	96	100	5.7
Cc1ccc(S(=O)(=O)N[C@@H](Cc2ccccc2)[C@H](O)CN2CCN(Cc3ccc(N)cc3)CC2)cc1	> 90	90	10	77	100	
COc1ccc(CN2CCN(C[C@@H](O)[C@H](Cc3ccccc3)NS(=O)(=O)c3ccc(C)cc3)CC2)cc1OC	> 90	100	9	92	100	
O=S(=O)(N[C@@H](Cc1ccccc1)[C@H](O)CN1CCN(Cc2ccc3c(c2)OCO3)CC1)c1ccc(F)cc1	42.5	94	4	83	100	
COc1ccc(CN2CCN(C[C@@H](O)[C@H](Cc3ccccc3)NS(=O)(=O)c3ccc(C)cc3)CC2)cc1	> 90	90	6	84	100	
